Activity calls are given as the source filed them. The rule behind the calls is not given here.
System: Plasmodium falciparum
Test: Antimalarial activity against Plasmodium falciparum 3D7 at 10 uM
Format: functional, organism-based

`COC(=O)[C@@H](CO)[C@H]1[C@H](O)C[C@](C)(OC(C)=O)[C@H]1C(=O)O` was tested, and the Activity was “inactive”.
`COC(=O)[C@@H]1COC(=O)[C@H]2[C@@H]1[C@@H](O)C[C@@]2(C)OC(C)=O` was tested, and the Activity was “inactive”.
For `COC(=O)[C@@H](CO)[C@H]1[C@H](O)C[C@](C)(O)[C@H]1C(=O)O`, the Activity was “inactive”.
For `COC(=O)C1=CO[C@@H](O[C@@H]2O[C@H](CO)[C@@H](O)[C@H](O)[C@H]2O)[C@H]2[C@@H]1[C@H](O)C[C@]2(C)OC(C)=O`, the Activity was “inactive”.

Source: ChEMBL document CHEMBL4665772, “Secoiridoids and Iridoids from Morinda asteroscepa” (J Nat Prod, 2020)
